5 molecules from the NIST ThermoML archive (doi:10.1016/j.tca.2013.04.021) can be followed below.

Numbers after ± are expanded uncertainties.

For series [1] the following is noted: Crystal; DTA.
Series [2] in a line: Molar enthalpy of transition or fusion. The settings on record: Crystal; DSC.

As for `CN(C(=O)N(C)c1ccccc1)c1ccccc1` [1,3-dimethyl-1,3-diphenylurea], the Normal melting temperature in series [1] was determined as 120.00 ± 1.1 °C. For the same molecule, the “Molar enthalpy of transition or fusion” value in series [2] was found to be 7.91 ± 0.215 kcal/mol.

For the molecule `c1ccc(Nc2ccccc2)cc1` [diphenylamine], the Normal melting temperature in series [1] is 53.50 ± 1.1 °C. Moreover, the “Molar enthalpy of transition or fusion” value in series [2] came out at 4.71 ± 0.167 kcal/mol.

Consider `CCNc1ccc([N+](=O)[O-])cc1` [N-ethyl-4-nitroaniline], for which the Normal melting temperature in series [1] is 95.06 ± 1.1 °C. Also, the “Molar enthalpy of transition or fusion” value in series [2] was 5.43 ± 0.191 kcal/mol.

Consider `CC(=O)OCCNc1ccc([N+](=O)[O-])cc1` [2-[(4-nitrophenyl)amino]ethanol 1-acetate], for which the Normal melting temperature in series [1] is 113.87 ± 1.1 °C. In addition, the “Molar enthalpy of transition or fusion” value in series [2] is 4.97 ± 0.191 kcal/mol.

Take `CCN(C(=O)N(CC)c1ccccc1)c1ccccc1` [1,3-diethyl-1,3-diphenylurea]: in series [1], the Normal melting temperature was 71.87 ± 1.1 °C. Moreover, in series [2], the “Molar enthalpy of transition or fusion” value was 8.01 ± 0.215 kcal/mol.
